Consider 1 compound from patent US20230241014A1, “MEK-INHIBITORS FOR THE TREATMENT OR PREVENTION OF CORONAVIRUS INFECTIONS AND/OR COVID-19 CYTOKINE STORM” (priority 2020, published 2023).

Like-named read-outs stand apart in the source and are kept apart here.

The subject of data set [1] is SARS-CoV-2 viral gene RdRP. In kind it is cell-based. The following applies: Vero cells, MOI 0.01, 50 μM, 24, 36 and 48 hpi.
For data set [2], the system named is SARS-CoV-2. In kind it is cell-based. The following applies: Caco-2, Vero E6, Calu-3; MOI 0.01; 100, 75, 50 μM; 24 h.
Data set [3] deals with Calu-3 cells. In words: Cytotoxicity evaluation in Calu-3 cells. The following applies: Calu-3, 72 h treatment. In kind it is cell-based, Homo sapiens. Here is the method:
In a next step, Calu-3 cells were incubated with increasing amounts of ATR-002 over 24, 48 or 72 hours. Specifically, Calu-3 cells were infected with SARS-CoV-2 (FI) using a MOI of 0.01. 1 h.p.i. cells were treated with ATR-002. Mock, SARS-CoV-2 and DMSO served as controls. […] Untreated (SARS-CoV-2) and DMSO (0.1%) treated cells served as negative controls. […] DMSO was used as reference. […] Data in combination with (C) was used to calculate the CC50 value and the selectivity index (SI).

Data set [4] has as its system LPS induced PMBC cells. In words: LPS induced cytokine expression in PBMC. The following applies: 10 μg/ml. In kind it is cell-based, human. The source says: In order to check what concentration of ATR-002 would be necessary for cytokine reduction, the amounts of IP10, TNF-alpha and MCP-1 expression was studied in LPS induced PMBC cells after ATR-002 treatment.
Data set [5] deals with peripheral blood mononuclear cells (PBMC's). Kind of data set: T-cell Inflammation Inhibition Assay (Anti-CD3 Stimulation). In kind it is cell-based, human. The following applies: ATR-002 100, 50, 25 μM, Dexamethasone 100 nM, 24 h.
Data set [6] has the same test system. In words: T-Cell Inflammation Inhibition Assay (PHA Stimulation). In kind it is cell-based, human. The following applies: ATR-002 100, 50, 25 μM, Dexamethasone 100 nM, 24 h.
In data set [7] the test system is ACE2. In words: ACE2 expression in Calu-3 cells (immunofluorescence microscopy, WES). In kind it is cell-based, Homo sapiens. The following applies: 100 μM, 24 h. Here is the method:
After this, it was tested whether ACE2 expression is reduced in cells after ATR-002 treatment. Calu-3 cells were treated with ATR-002 for 24 hours and the results were analysed via immunofluorescence microscopy and WES technology. Specifically, Calu-3 cells were seeded on glass cover slips in 24-well plates, 1×10^5 cells per well and incubated for 48 h at 37° C., 5% CO2 After washing the cells with medium (IMDM with 10% FBS and 1% P/S), 1 mL of 100 μM ATR-002 in medium or 1 mL 1% DMSO in medium (solvent control) were added to the wells and incubated for 24 h at 37° C., 5% CO2.
Then the wells were washed once with PBS and fixed with 300 μL/well 4% PFA in PBS for 10 minutes at room temperature. […] The slides were let dry at 4° C. in the dark and then analysed using a confocal laser scanning microscope (LSM800, Zeiss).

Data set [8] relates to SARS-CoV-2 (FI). In kind it is cell-based.
Data set [9] deals with VSV pseudotype virus carrying the SARS-CoV-2 Spike protein. In kind it is cell-based.
Data set [10] has as its system SARS-CoV-2. In words: SARS-CoV-2 Syrian hamster infection model. The following applies: for reduction of progeny virus in throat swabs (TCID50): 100 mg/kg then 75 mg/kg once daily oral; for reduction of progeny virus in throat swabs (TCID50) / reduction of viral load in throat swabs (PCR): day 3 p.i.; for tolerability, weight loss, adverse effects: compared to vehicle.

The mark [11] stands for this setting: treatment start 4 hours p.i., day 4 p.i.
Setting [12] is: treatment start 24 hours p.i., day 4 p.i.

The term inhibition denotes the relative decrease from the control value, in per cent.

In the case of `O=C(O)c1ccc(F)c(F)c1Nc1ccc(I)cc1Cl` [ATR-002, 2-(2-chloro-4-iodophenylamino)-N-3,4-difluoro benzoic acid], the “SARS-CoV-2 viral gene RdRP genome copies” value in data set [1] is recorded as “confirmed”. Moreover, the “virus titer via RT-qPCR, effect across cell types” value in data set [2] is on record as “effect seen on all cell types was comparable”. Further, the “cytotoxicity at antiviral concentrations” value in [3] was “non-toxic concentration range”. For the same compound, in [4] (LPS induced PBMC), the IP10 expression entry is given as “reduced” and the TNF-alpha expression result is given as “reduced”. In addition, the inhibition at 10 µg/mL in [4] (PBMC, human PBMCs, read-out: inhibition of LPS induced MCP-1) is over 90%. Moreover, the “inhibition of cytokine/chemokine stimulation (summary)” value in [5] is reported as “significant, dose dependent inhibition”. Moreover, in [6], the “inhibition of cytokine/chemokine stimulation (summary)” value is “significant, dose dependent inhibition”. In data set [7], the “ACE2 on Calu-3 cells” value was “reduction of ACE2”. In addition, the “production of progeny viral particles” value in data set [8] (A549-ACE2/TMPRSS2, MOI 0.001, 100 μM) was “reduced the production of progeny viral particles”. In addition, the “production of progeny viral particles” value in [8] (A549-ACE2/TMPRSS2, MOI 0.01, 100 μM) is reported as “did not affect the production of progeny viral particles”. In data set [8] (Calu-3, MOI 0.001, 100 μM), the “production of progeny viral particles” value is on record as “reduced the production of progeny viral particles”. Besides, in data set [9], the “internalization of the VSV pseudotype virus (GFP positive cells)” value is recorded as “reduction in the internalization”. Further, in data set [10] (treatment start 4 hours p.i.), the “reduction of progeny virus in throat swabs (TCID50)” value came to 1.1 log 10; the “tolerability, weight loss, adverse effects” value is recorded as “well tolerated without significant weight loss”; the “reduction of viral load in throat swabs (PCR)” value was 1.1 log 10. Further, in data set [10] (setting [11]), the “affected lung tissue (lung lesions, estimated percentage)” value is listed as “significantly reduced affected lung tissue”; the “reduction in infectious virus titers (TCID50/g tissue) in the nasal turbinates” value is 1.3 log 10; the “reduction of viral load in the nasal turbinates (PCR)” value is recorded as 1.1 log 10. Moreover, in data set [10] (treatment start 24 hours p.i.), the “reduction of progeny virus in throat swabs (TCID50)” value is given as 1.3 log 10; the “tolerability, weight loss, adverse effects” value is recorded as “well tolerated without significant weight loss”; the “reduction of viral load in throat swabs (PCR)” value is recorded as 1.2 log 10. Also, in [10] (setting [12]), the “affected lung tissue (lung lesions, estimated percentage)” value is recorded as “significantly reduced affected lung tissue” and the “infectious virus titers in the nasal turbinates” value is “not the treatment started 24 hours p.i., significantly reduced infectious virus titers”.
